{"source": "patent US8129417B2", "about": "“Substituted octahydrocyclopenta[C]pyrrol-4-amines as calcium channel blockers” (Abbott Laboratories, priority 2008, dated 2012)", "data": [{"target": "human Cav2.2 (Homo sapiens, UniProt Q00975)", "sequence (Q00975 whole entry)": "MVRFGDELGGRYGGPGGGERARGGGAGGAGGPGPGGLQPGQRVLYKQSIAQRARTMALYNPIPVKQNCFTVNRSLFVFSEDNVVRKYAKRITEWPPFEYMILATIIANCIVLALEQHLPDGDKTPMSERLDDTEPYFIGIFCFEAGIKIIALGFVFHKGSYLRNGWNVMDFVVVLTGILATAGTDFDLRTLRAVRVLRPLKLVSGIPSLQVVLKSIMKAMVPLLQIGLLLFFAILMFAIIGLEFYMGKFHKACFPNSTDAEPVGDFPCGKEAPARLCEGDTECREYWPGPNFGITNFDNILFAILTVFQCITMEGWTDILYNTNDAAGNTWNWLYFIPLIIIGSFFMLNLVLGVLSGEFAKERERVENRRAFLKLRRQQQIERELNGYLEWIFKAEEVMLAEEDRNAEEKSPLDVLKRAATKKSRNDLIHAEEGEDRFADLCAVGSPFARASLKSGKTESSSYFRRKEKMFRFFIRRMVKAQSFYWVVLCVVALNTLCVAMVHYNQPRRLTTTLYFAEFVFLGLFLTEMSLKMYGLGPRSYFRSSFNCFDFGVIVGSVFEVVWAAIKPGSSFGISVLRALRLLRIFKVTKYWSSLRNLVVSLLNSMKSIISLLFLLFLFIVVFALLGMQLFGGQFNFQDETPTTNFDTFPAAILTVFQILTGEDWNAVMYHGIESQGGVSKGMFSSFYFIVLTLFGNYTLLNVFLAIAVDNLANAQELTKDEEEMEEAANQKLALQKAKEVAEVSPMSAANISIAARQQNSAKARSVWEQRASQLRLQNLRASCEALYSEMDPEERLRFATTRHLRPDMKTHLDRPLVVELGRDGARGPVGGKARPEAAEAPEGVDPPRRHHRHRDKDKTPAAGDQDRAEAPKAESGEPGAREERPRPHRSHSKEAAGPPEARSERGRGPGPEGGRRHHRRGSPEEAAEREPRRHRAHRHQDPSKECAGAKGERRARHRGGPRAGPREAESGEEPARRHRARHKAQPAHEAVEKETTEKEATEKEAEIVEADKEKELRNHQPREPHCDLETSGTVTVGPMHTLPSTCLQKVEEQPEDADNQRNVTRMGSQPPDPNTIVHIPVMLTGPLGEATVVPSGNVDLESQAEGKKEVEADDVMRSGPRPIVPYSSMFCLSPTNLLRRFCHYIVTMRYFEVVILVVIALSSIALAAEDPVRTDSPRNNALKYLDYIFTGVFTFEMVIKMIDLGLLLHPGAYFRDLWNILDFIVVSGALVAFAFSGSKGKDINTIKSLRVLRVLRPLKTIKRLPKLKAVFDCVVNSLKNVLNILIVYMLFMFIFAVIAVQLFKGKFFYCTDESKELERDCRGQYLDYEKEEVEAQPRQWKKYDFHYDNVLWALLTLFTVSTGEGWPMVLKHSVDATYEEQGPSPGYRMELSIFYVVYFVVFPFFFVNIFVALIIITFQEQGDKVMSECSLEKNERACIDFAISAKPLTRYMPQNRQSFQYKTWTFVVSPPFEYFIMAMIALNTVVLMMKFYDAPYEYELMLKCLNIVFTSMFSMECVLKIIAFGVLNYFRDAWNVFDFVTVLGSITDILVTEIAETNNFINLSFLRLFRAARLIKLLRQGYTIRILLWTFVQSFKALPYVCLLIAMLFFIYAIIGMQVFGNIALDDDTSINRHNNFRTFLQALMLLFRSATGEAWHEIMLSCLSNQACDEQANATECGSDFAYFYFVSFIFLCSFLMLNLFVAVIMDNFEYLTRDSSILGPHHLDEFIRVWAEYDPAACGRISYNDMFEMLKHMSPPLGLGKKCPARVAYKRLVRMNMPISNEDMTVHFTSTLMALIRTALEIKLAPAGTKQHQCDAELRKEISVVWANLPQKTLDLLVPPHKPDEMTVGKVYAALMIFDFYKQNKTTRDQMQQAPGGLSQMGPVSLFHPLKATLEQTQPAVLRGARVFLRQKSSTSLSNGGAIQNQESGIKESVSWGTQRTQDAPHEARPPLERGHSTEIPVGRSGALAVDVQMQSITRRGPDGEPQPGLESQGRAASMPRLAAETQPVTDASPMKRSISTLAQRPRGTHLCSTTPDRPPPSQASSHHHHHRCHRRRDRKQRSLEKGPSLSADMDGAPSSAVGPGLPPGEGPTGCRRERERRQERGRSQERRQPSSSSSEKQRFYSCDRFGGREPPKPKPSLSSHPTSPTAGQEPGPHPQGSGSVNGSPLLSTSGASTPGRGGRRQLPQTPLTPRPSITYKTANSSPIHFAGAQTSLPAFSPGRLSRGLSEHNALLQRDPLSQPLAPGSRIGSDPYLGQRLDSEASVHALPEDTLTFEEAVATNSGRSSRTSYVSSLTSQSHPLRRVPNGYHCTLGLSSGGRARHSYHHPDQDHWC", "sequence (P54289 25-946 partner limits assumed)": "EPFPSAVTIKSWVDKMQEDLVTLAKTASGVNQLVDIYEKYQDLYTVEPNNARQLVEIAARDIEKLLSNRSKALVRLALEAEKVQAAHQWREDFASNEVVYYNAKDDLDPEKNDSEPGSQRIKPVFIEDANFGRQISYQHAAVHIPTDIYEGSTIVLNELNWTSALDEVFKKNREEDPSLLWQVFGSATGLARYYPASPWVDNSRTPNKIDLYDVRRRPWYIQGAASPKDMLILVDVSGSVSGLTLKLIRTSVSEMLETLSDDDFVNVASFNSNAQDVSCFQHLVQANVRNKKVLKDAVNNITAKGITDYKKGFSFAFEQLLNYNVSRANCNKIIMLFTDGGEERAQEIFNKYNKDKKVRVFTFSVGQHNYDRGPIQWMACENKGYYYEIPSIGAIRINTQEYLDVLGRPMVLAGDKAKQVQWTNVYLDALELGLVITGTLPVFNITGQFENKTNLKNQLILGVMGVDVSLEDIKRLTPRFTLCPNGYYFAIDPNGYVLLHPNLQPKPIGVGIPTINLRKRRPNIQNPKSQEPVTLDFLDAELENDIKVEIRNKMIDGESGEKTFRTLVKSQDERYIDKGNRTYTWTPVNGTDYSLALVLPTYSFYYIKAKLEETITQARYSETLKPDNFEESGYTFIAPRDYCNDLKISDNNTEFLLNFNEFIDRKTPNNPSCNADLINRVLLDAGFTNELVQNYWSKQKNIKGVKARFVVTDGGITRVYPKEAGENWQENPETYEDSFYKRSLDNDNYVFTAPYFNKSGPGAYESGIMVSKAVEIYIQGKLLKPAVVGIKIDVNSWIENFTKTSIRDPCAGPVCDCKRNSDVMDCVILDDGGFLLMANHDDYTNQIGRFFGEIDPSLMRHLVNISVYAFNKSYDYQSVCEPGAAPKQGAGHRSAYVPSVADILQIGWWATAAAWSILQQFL", "sequence (P54289 947-1103 partner limits assumed)": "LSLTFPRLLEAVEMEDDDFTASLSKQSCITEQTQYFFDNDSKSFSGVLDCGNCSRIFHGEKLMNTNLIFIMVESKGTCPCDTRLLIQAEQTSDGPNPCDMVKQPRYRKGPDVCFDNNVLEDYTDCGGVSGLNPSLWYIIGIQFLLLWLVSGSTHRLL", "sequence (P54284 whole entry partner)": "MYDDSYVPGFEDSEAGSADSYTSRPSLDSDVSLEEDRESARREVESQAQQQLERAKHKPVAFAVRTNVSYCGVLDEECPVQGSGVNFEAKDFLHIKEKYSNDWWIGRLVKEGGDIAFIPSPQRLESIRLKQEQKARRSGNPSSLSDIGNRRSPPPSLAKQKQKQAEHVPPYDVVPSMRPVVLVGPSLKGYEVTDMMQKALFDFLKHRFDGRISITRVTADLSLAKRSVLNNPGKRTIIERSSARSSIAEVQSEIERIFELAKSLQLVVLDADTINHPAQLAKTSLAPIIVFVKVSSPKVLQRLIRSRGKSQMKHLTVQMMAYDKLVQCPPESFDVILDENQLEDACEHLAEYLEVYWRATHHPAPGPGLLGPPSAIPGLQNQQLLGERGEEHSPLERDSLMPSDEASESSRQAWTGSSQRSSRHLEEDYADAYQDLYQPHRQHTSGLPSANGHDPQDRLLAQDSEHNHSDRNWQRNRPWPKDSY", "test": "Assessment of calcium channel activity using FLIPR (Ca2+ influx in IMR32 cells)", "type": "cell-based", "conditions": "60 minute pre-incubation with compound, 2 μM nifedipine, depolarized with 80 mM KCl", "procedure,_shortened": "(§1)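 IMR32 neuroblastoma cells seeded at 1-1.2×10^5 cells/well and grown 48 h at 37 °C before FLIPR Ca2+ influx read. Percent inhibition at each concentration vs no-inhibitor activity; IC50 by non-linear sigmoidal dose-response fit.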", "units": {"IC50": "µM"}, "values": [{"smiles": "O=C(N[C@H]1CC[C@H]2CN(S(=O)(=O)c3cccc(C(F)(F)F)c3)C[C@H]21)C(C1CCCCC1)C1CCCCC1", "note": "[Example 205, 2,2-dicyclohexyl-N-((3aS,4S,6aR)-2-{[3-(trifluoromethyl)phenyl]sulfonyl}octahydrocyclopenta[c]pyrrol-4-yl)acetamide]", "IC50": 3.4}, {"smiles": "O=C(N[C@H]1CC[C@H]2CN(S(=O)(=O)CCc3ccccc3)C[C@H]21)C(C1CCCCC1)C1CCCCC1", "note": "[Example 206, 2,2-dicyclohexyl-N-{(3aS,4S,6aR)-2-[(2-phenylethyl)sulfonyl]octahydrocyclopenta[c]pyrrol-4-yl}acetamide]", "IC50": "> 100"}, {"smiles": "O=C(N[C@H]1CC[C@H]2CN(S(=O)(=O)CCc3cccc4ccccc34)C[C@H]21)C(C1CCCCC1)C1CCCCC1", "note": "[Example 207, 2,2-dicyclohexyl-N-((3aS,4S,6aR)-2-{[2-(1-naphthyl)ethyl]sulfonyl}octahydrocyclopenta[c]pyrrol-4-yl)acetamide]", "IC50": "> 100"}, {"smiles": "O=C(N[C@H]1CC[C@H]2CN(S(=O)(=O)Cc3cccc(C(F)(F)F)c3)C[C@H]21)C(C1CCCCC1)C1CCCCC1", "note": "[Example 208, 2,2-dicyclohexyl-N-((3aS,4S,6aR)-2-{[3-(trifluoromethyl)benzyl]sulfonyl}octahydrocyclopenta[c]pyrrol-4-yl)acetamide]", "IC50": "> 100"}, {"smiles": "O=C(N[C@H]1CC[C@H]2CN(S(=O)(=O)CCc3ccc(F)cc3)C[C@H]21)C(C1CCCCC1)C1CCCCC1", "note": "[Example 209, 2,2-dicyclohexyl-N-((3aS,4S,6aR)-2-{[2-(4-fluorophenyl)ethyl]sulfonyl}octahydrocyclopenta[c]pyrrol-4-yl)acetamide]", "IC50": "> 100"}, {"smiles": "CC(C)C[C@H](NC(=O)OC(C)(C)C)C(=O)N[C@H]1CC[C@@H]2CN(Cc3ccccc3)C[C@@H]21", "note": "[Example 221, tert-butyl(S)-1-((3aR,4S,6aS)-2-benzyloctahydrocyclopenta[c]pyrrol-4-ylamino)-4-methyl-1-oxopentan-2-ylcarbamate]", "IC50": 3.93}, {"smiles": "CC(C)C[C@@H](C(=O)N[C@H]1CC[C@@H]2CN(Cc3ccccc3)C[C@@H]21)N(C)C(=O)OC(C)(C)C", "note": "[Example 222, tert-butyl(S)-1-((3aR,4S,6aS)-2-benzyloctahydrocyclopenta[c]pyrrol-4-ylamino)-4-methyl-1-oxopentan-2-yl(methyl)carbamate]", "IC50": 2.05}, {"smiles": "CCN(C(=O)OC(C)(C)C)[C@@H](CC(C)C)C(=O)N[C@H]1CC[C@@H]2CN(Cc3ccccc3)C[C@@H]21", "note": "[Example 223, tert-butyl(S)-1-((3aR,4S,6aS)-2-benzyloctahydrocyclopenta[c]pyrrol-4-ylamino)-4-methyl-1-oxopentan-2-yl(ethyl)carbamate]", "IC50": 2.06}, {"smiles": "CC[C@H](C)[C@@H](C(=O)N[C@H]1CC[C@@H]2CN(Cc3ccccc3)C[C@@H]21)N(C)C(=O)OC(C)(C)C", "note": "[Example 224, tert-butyl(2S,3S)-1-((3aR,4S,6aS)-2-benzyloctahydrocyclopenta[c]pyrrol-4-ylamino)-3-methyl-1-oxopentan-2-yl(methyl)carbamate]", "IC50": 4.64}, {"smiles": "CC(C)(C)C[C@H](NC(=O)OC(C)(C)C)C(=O)N[C@H]1CC[C@@H]2CN(Cc3ccccc3)C[C@@H]21", "note": "[Example 226, tert-butyl(S)-1-((3aR,4S,6aS)-2-benzyloctahydrocyclopenta[c]pyrrol-4-ylamino)-4,4-dimethyl-1-oxopentan-2-ylcarbamate]", "IC50": 4.06}, {"smiles": "CCCC[C@@H](C(=O)N[C@H]1CC[C@@H]2CN(Cc3ccccc3)C[C@@H]21)N(C)C(=O)OC(C)(C)C", "note": "[Example 227, tert-butyl(S)-1-((3aR,4S,6aS)-2-benzyloctahydrocyclopenta[c]pyrrol-4-ylamino)-1-oxohexan-2-yl(methyl)carbamate]", "IC50": 3.17}, {"smiles": "O=C(N[C@H]1CC[C@@H]2CN(Cc3ccccc3)C[C@@H]21)C(c1ccc(F)cc1)c1ccc(F)cc1", "note": "[Example 228, N-[(3aR,4S,6aS)-2-benzyloctahydrocyclopenta[c]pyrrol-4-yl]-2,2-bis(4-fluorophenyl)acetamide]", "IC50": 2.09}, {"smiles": "CC(C)[C@@H](C(=O)N[C@@H]1CC[C@H]2CN(Cc3ccccc3)C[C@H]21)N(C)C(=O)OC(C)(C)C", "note": "[Example 232, tert-butyl(S)-1-((3aS,4R,6aR)-2-benzyloctahydrocyclopenta[c]pyrrol-4-ylamino)-3-methyl-1-oxobutan-2-yl(methyl)carbamate]", "IC50": 3.6}, {"smiles": "CC(C)(C)OC(=O)N[C@H](C(=O)N[C@@H]1CC[C@H]2CN(Cc3ccccc3)C[C@H]21)C(C)(C)C", "note": "[Example 234, tert-butyl(S)-1-((3aS,4R,6aR)-2-benzyloctahydrocyclopenta[c]pyrrol-4-ylamino)-3,3-dimethyl-1-oxobutan-2-ylcarbamate]", "IC50": 7.4}, {"smiles": "CC(C)C(C(=O)N[C@@H]1CC[C@H]2CN(Cc3ccccc3)C[C@H]21)C(C)C", "note": "[Example 235, N-[(3aS,4R,6aR)-2-benzyloctahydrocyclopenta[c]pyrrol-4-yl]-2-isopropyl-3-methylbutanamide]", "IC50": 14.2}, {"smiles": "O=C(N[C@H]1CC[C@H]2CN(Cc3cccc(C(F)(F)F)c3)C[C@H]21)C(O)C1CCCCC1", "note": "(stereo partly drawn) [Example 237, 2-cyclohexyl-2-hydroxy-N-{(3aS,4S,6aR)-2-[3-(trifluoromethyl)benzyl]octahydrocyclopenta[c]pyrrol-4-yl}acetamide]", "IC50": 1.88}, {"smiles": "CCC[C@@H](C(=O)N[C@H]1CC[C@H]2CN(Cc3ccccc3)C[C@H]21)N(C)C(=O)OC(C)(C)C", "note": "[Example 238, tert-butyl(S)-1-((3aS,4S,6aR)-2-benzyloctahydrocyclopenta[c]pyrrol-4-ylamino)-1-oxopentan-2-yl(methyl)carbamate]", "IC50": 5.73}, {"smiles": "CCC[C@@H](C(=O)N[C@@H]1CC[C@@H]2CN(Cc3ccccc3)C[C@@H]21)N(C)C(=O)OC(C)(C)C", "note": "[Example 240, tert-butyl(S)-1-((3aR,4R,6aS)-2-benzyloctahydrocyclopenta[c]pyrrol-4-ylamino)-1-oxopentan-2-yl(methyl)carbamate]", "IC50": 2.67}, {"smiles": "CC(C)C[C@H](NS(C)(=O)=O)C(=O)N[C@H]1CC[C@@H]2CN(Cc3ccccc3)C[C@@H]21", "note": "[Example 242, N^1-[(3aR,4S,6aS)-2-benzyloctahydrocyclopenta[c]pyrrol-4-yl]-N^2-(methylsulfonyl)-L-leucinamide]", "IC50": 7.92}, {"smiles": "CC(C)C[C@H](NCC(C)(C)C)C(=O)N[C@@H]1CC[C@H]2CN(Cc3ccccc3)C[C@H]21", "note": "[Example 245, N^1-[(3aS,4R,6aR)-2-benzyloctahydrocyclopenta[c]pyrrol-4-yl]-N^2-neopentyl-L-leucinamide]", "IC50": 8.08}, {"smiles": "CN(C(=O)OC(C)(C)C)[C@@H](CC(C)(C)C)C(=O)N[C@H]1CC[C@@H]2CN(Cc3ccccc3)C[C@@H]21", "note": "[Example 247, tert-butyl(S)-1-((3aR,4S,6aS)-2-benzyloctahydrocyclopenta[c]pyrrol-4-ylamino)-4,4-dimethyl-1-oxopentan-2-yl(methyl)carbamate]", "IC50": 3.62}, {"smiles": "CN(C(=O)OC(C)(C)C)[C@@H](CC(C)(C)C)C(=O)N[C@@H]1CC[C@H]2CN(Cc3ccccc3)C[C@H]21", "note": "[Example 248, tert-butyl(S)-1-((3aS,4R,6aR)-2-benzyloctahydrocyclopenta[c]pyrrol-4-ylamino)-4,4-dimethyl-1-oxopentan-2-yl(methyl)carbamate]", "IC50": 1.67}, {"smiles": "CC(C)C[C@H](NCC(C)(C)C)C(=O)N[C@H]1CC[C@@H]2CN(S(=O)(=O)c3cccc(C(F)(F)F)c3)C[C@@H]21", "note": "[Example 252, N^2-neopentyl-N^1-((3aR,4S,6aS)-2-{[3-(trifluoromethyl)phenyl]sulfonyl}octahydrocyclopenta[c]pyrrol-4-yl)-L-leucinamide]", "IC50": 0.64}, {"smiles": "CCC[C@H](NCC(C)(C)C)C(=O)N[C@H]1CC[C@@H]2CN(S(=O)(=O)c3cccc(C(F)(F)F)c3)C[C@@H]21", "note": "[Example 253, N^2-neopentyl-N^1-((3aR,4S,6aS)-2-{[3-(trifluoromethyl)phenyl]sulfonyl}octahydrocyclopenta[c]pyrrol-4-yl)-L-norvalinamide]", "IC50": 0.36}, {"smiles": "CC(C)C[C@H](NCC(C)(C)C)C(=O)N[C@@H]1CC[C@H]2CN(S(=O)(=O)c3cccc(C(F)(F)F)c3)C[C@H]21", "note": "[Example 254, N^2-neopentyl-N^1-((3aS,4R,6aR)-2-{[3-(trifluoromethyl)phenyl]sulfonyl}octahydrocyclopenta[c]pyrrol-4-yl)-L-leucinamide]", "IC50": 0.72}, {"smiles": "CCC[C@H](NCC(C)(C)C)C(=O)N[C@@H]1CC[C@H]2CN(S(=O)(=O)c3cccc(C(F)(F)F)c3)C[C@H]21", "note": "[Example 255, N^2-neopentyl-N^1-((3aS,4R,6aR)-2-{[3-(trifluoromethyl)phenyl]sulfonyl}octahydrocyclopenta[c]pyrrol-4-yl)-L-norvalinamide]", "IC50": 0.55}, {"smiles": "CC(C)C[C@H](NCC(C)(C)C)C(=O)N[C@H]1CC[C@@H]2CN(S(=O)(=O)c3ccc(C(F)(F)F)cc3)C[C@@H]21", "note": "[Example 256, N^2-neopentyl-N^1-((3aR,4S,6aS)-2-{[4-(trifluoromethyl)phenyl]sulfonyl}octahydrocyclopenta[c]pyrrol-4-yl)-L-leucinamide]", "IC50": 1.38}]}, {"target": "human Cav2.2 (Homo sapiens, UniProt Q00975)", "test": "Assessment of calcium channel activity using FLIPR (Ca2+ influx in IMR32 cells)", "type": "cell-based", "conditions": "IMR-32, @ 10 μM, 3 minute pre-incubation (*), read-out: percent inhibition", "procedure,_shortened": "as §1", "units": {"inhibition at 10 µM": "%"}, "values": [{"smiles": "CC[C@H](C(=O)N[C@@H]1CC[C@@H]2CN([C@@H](C)c3ccccc3)C[C@@H]21)c1ccccc1", "note": "[Example 210, (2S)-2-phenyl-N-{(3aR,4R,6aS)-2-[(1S)-1-phenylethyl]octahydrocyclopenta[c]pyrrol-4-yl}butanamide]", "inhibition at 10 µM": 76}, {"smiles": "CC[C@H](C(=O)N[C@@H]1CC[C@H]2CN([C@@H](C)c3ccccc3)C[C@H]21)c1ccccc1", "note": "[Example 213, (2S)-2-phenyl-N-{(3aS,4R,6aR)-2-[(1S)-1-phenylethyl]octahydrocyclopenta[c]pyrrol-4-yl}butanamide]", "inhibition at 10 µM": 60}, {"smiles": "CC(C)C(C(=O)N[C@H]1CC[C@@H]2CN(C(=O)c3ccccc3)C[C@@H]21)c1ccccc1", "note": "(stereo partly drawn) [Example 218, N-[(3aR,4S,6aS)-2-benzoyloctahydrocyclopenta[c]pyrrol-4-yl]-3-methyl-2-phenylbutanamide]", "inhibition at 10 µM": 56}, {"smiles": "CC(C)N(C(=O)N[C@H]1CC[C@@H]2CN(Cc3ccccc3)C[C@@H]21)c1ccccc1", "note": "[Example 219, N′-[(3aR,4S,6aS)-2-benzyloctahydrocyclopenta[c]pyrrol-4-yl]-N-isopropyl-N-phenylurea]", "inhibition at 10 µM": 63}]}]}
